Laboratory results as given in patent publication US10189863B2, “5,6-dihydro-4H-benzo[b]thieno-[2,3-d]azepine derivatives” (PULMOCIDE LIMITED, priority 2014, dated 2019).

Columns and labels:
RSV A2 = experiment: RSV infection in mice: virus titre in lung (plaque assay); type: in vivo, mice (male BALB/C); conditions: for Virus titre in lung, Geometric mean / Virus titre in lung, Median: mice, day 4
Method: Non-fasted mice (male BALB/C, 20-30 g) were infected intranasally with RSV A2 or virus diluent (DMEM, 2% FBS, 12.5% sucrose) under isoflurane (5% in O2) anaesthesia. The A2 strain of RSV (50 μL of 1.3×10^6 PFU/mL: final 0.65×10^5 PFU/mouse) was instilled into each nostril in a drop wise fashion alternating between the two until a volume of 50 μL was delivered. Following infection each animal was weighed on a daily basis to monitor changes. Test compounds were dissolved in 100% DMSO (at 20 mg/mL and/or 2 mg/mL), then diluted at 1:10 in isotonic saline to achieve 10% DMSO in all treatments. Formulations were then sonicated to produce a suspension. The suspension was administered intratracheally (20 μL) with a FMJ-250 PennCentury device or intranasally (40 μL) with a pipette on 1 day and 1 hr before infection (day 0), and then on days 1, 2 and 3 post infection. Four days after RSV challenge, the animals were euthanised (by intraperitoneal injection of a pentobarbitone overdose), the trachea cannulated and BALF extracted for total and differential cell counts. Following BALF collection, the right lung was removed from each animal and homogenised in ice-cold Dulbecco's modified Eagles medium (using 10 times the lung weight of DMEM containing 1% BSA and 25% sucrose) for 2×20 second bursts. The homogenate was then transferred into a sterile tube and spun at 4° C. (2000 rpm; for 5 min). The clarified homogenate was transferred to a chilled cryovial, snap frozen and stored at −80° C. The supernatants from lung homogenates were used for Plaque assay.
HEp2 cells were grown in 24-well plates (Corning) for 48 hr prior to infection in DMEM containing 10% FBS until they attained 100% confluency. Lung homogenate was thawed at RT and ten-fold serial dilutions were prepared in serum-free DMEM. The growth medium from HEp2 cells was aspirated and replaced with 300 μL of serially diluted lung homogenate and left to infect (4 hr; 37° C./5% CO2). The infectious media were aspirated and replaced with Plaque Assay Overlay (500 μL; 1% methylcellulose in MEM, 2% FBS, 1% Pen Strep, 0.5 μg/mL amphotericin B), and left for 7 days (37° C./5% CO2). Cells were fixed with ice-cold methanol for 10 min and blocked with 5% powdered milk (Marvel) in 0.05% PBS-tween (blocking buffer) for 1 hr at RT.
Anti-RSV F-protein antibody [2F7] (Abcam: ab43812) was diluted to a 1:100 concentration in blocking buffer and added to cells for 1 hr at RT with shaking. Cells were washed using PBS and then incubated with the secondary antibody (HRP conjugated goat anti-mouse secondary antibody (Dako P044701-2) diluted in 1:400 with blocking buffer) for 1 hr at RT with shaking. The secondary antibody solution was removed and cells were washed with PBS before the metal-enhanced development substrate DAB was prepared in ultra-pure water (according to manufacturer's instructions). Each well received 300 μL of development substrate (sigmaFAST D0426) until plaques were visible. Plaques were counted by eye and confirmed using light microscopy, allowing the calculation of plaque forming units per mL of lung homogenate supernatant.

[1] = test system: RSV NS-1 gene transcripts; experiment: RSV infection in cotton rats: RSV NS-1 gene transcripts in lung (qRT-PCR); type: in vivo, Sigmodon hispidus cotton rats; conditions: for RSV NS1 gene transcript % inhibition / RSV NS1 gene transcript (/β-actin), Median: intranasal
Method: RSV Infection in Cotton Rats
Male Sigmodon hispidus cotton rats between 6 and 8 weeks of age were infected with hRSV/A/Long (ATCC, Manassas, Va.; 10^5 pfu) in a volume of 0.1 mL of sucrose stabilizing media. Test compounds were dissolved in 100% DMSO (at 3.3, 10, 33 and 100 mg/mL), then diluted at 1:10 in isotonic saline to achieve 10% DMSO in all treatments. Formulations were then sonicated to produce suspensions. The resulting suspensions were administered intranasally (50 μL) by pipette 4 hr before infection (on day 0), and then on days 1, 2 and 3 post infection. Four days after RSV challenge, the animals were euthanised and the lungs were removed. The left lobe was used for viral titration via plaque assay and the lingular lobe for RSV/A/Long NS-1 qRT-PCR and cytokine qRT-PCR.
Total RNA was also extracted from homogenized lung tissue (RNeasy purification kit; Qiagen) and a sample (1 μg) was used to prepare cDNA using QuantiTect Reverse Transcription Kit (Qiagen). For real-time PCR reactions (RSV NS-1 and RANTES genes) the QuantiFast SYBR® Green PCR Kit (Qiagen) was used in a final volume of 25 μL, with final primer concentrations of 0.5 μM. Amplifications were performed on a Bio-Rad iCycler for 1 cycle of 95° C. for 3 min, followed by 40 cycles of 95° C. for 10 sec, 60° C. for 10 sec, and 72° C. for 15 sec. Baseline cycles and cycle threshold (Ct) were calculated by the iQ5 software in the PCR Base Line Subtracted Curve Fit mode. The standard curves were developed using serially diluted cDNA sample most enriched in the transcript of interest (e.g., lungs from day 4 post-primary RSV infection). The Ct values were plotted against log10 cDNA dilution factor. These curves were used to convert the Ct values obtained for different samples to relative expression units which were then normalized to the level of β-actin mRNA (“housekeeping gene”) expressed in the corresponding sample. The mRNA levels were expressed as the geometric mean±SEM for all animals in a group.

[2] = intranasal, Drug Conc 0.2 mg/mL
[3] = intranasal, Drug Conc 2 mg/mL, LOQ 1.5
[4] = intratracheal, Drug Conc 0.2 mg/mL, LOQ 1.5

Compound: Cc1cnc(N2CC3(CCOCC3)C2)c(C(=O)Nc2ccc(C(=O)N3CCc4cc(C(=O)Nc5c(C)cccc5F)sc4-c4ccccc43)cc2)c1 [Example 5, N-(2-Fluoro-6-methylphenyl)-6-(4-(5-methyl-2-(7-oxa-2-azaspiro[3.5]nonan-2-yl)nicotinamido)benzoyl)-5,6-dihydro-4H-benzo[b]thieno[2,3-d]azepine-2-carboxamide]
- Effect on virus titre in the lungs (in words) (RSV A2; RSV A2 infected mice): completely inhibited virus titre
- Virus titre in lung, Geometric mean (RSV A2; [2]): 2.4 log PFU/lung
- Virus titre in lung, Median (RSV A2; [2]): 2.5 log PFU/lung
- Virus titre in lung, Geometric mean (RSV A2; [3]): <1.5^2 log PFU/lung
- Virus titre in lung, Median (RSV A2; [3]): <1.5^2 log PFU/lung
- Virus titre in lung, Geometric mean (RSV A2; [4]): <1.5^2 log PFU/lung
- Virus titre in lung, Median (RSV A2; [4]): <1.5^2 log PFU/lung
- Effect on RSV NS-1 gene transcripts (in words) [1]: dose-dependent inhibition
- RSV NS1 gene transcript % inhibition ([1]; Drug Conc 0.33 mg/mL): 55%
- RSV NS1 gene transcript (/β-actin), Median ([1]; Drug Conc 0.33 mg/mL): 2.0 /β-actin
- RSV NS1 gene transcript % inhibition ([1]; Drug Conc 1.0 mg/mL): 64%
- RSV NS1 gene transcript (/β-actin), Median ([1]; Drug Conc 1.0 mg/mL): 1.6 /β-actin
- RSV NS1 gene transcript % inhibition ([1]; Drug Conc 3.3 mg/mL): 77%
- RSV NS1 gene transcript (/β-actin), Median ([1]; Drug Conc 3.3 mg/mL): 1.0 /β-actin
- RSV NS1 gene transcript % inhibition ([1]; Drug Conc 10 mg/mL): 77%
- RSV NS1 gene transcript (/β-actin), Median ([1]; Drug Conc 10 mg/mL): 1.0 /β-actin
